Results taken from patent publication US12544350B2, “Combinatorial antitumor treatment methods and related compositions, kits, and systems” (Klotho Therapeutics, Inc., priority 2021, dated 2026).

Experiments:
[1] = test system: cisplatin induced acute kidney injury (CI-AKI) in mice; assay: Cisplatin-induced acute kidney injury (CI-AKI) in mice, Compound 3 (Example 11); type: in vivo, female C57BL/6J mice
Protocol: The aim of the study was to investigate the efficacy of test compounds in the model of cisplatin induced acute kidney injury (CI-AKI) in mice. […] Serum analysis for urea (BUN) was performed on the 5th day and 9th days after cisplatin administration. The mean body weight loss per group was calculated every day of the study as percentage loss of initial (day 0) weight for each individual animal.
Study design, animal selection, handling and treatment were all in accordance with the CRO's study protocols and Institutional Animal Care and Use Guidelines. Animal treatment and serum samples preparation were conducted by the Animal Laboratory personnel at the CRO. 60 female C57BL/6J mice 9-12 weeks old were randomized by body weight and divided into 2 groups, 30 animals each. Body weights ranged from 13.9 to 22.0 g with an average body weight across all groups 17.75 g (SD=1.30; CV=7.3%). Each mouse was treated with a single dose via IP route of administration with cisplatin at the dose of 11 mg/kg on the day 0 of the study. […] The mice in Group 1 remained untreated after the cisplatin injection until the terminal sacrifice.
Cisplatin was administered without dilution as a factory-made 1 mg/ml solution for infusion at the injection volume of 11 ml/kg for the dose of 11 mg/kg. […] Only freshly prepared formulation was used for each dosing; each working formulation batch was prepared immediately prior to the administration. The working formulations were sterile filtered using 0.2 μm cellulose acetate syringe filters before injections. The dosing volume for the test compound was 5 ml/kg of body weight. The working formulations were administered as transparent clear solutions. Intraperitoneal (IP) route of administration was used in the study. Urea (BUN) was determined in the serum using a commercial kit according to the manufacturer's instructions. […] The rate of absorbance change at λ=340 nm is proportional to the urea concentration. […] Creatinine was measured using Modified Jaffe's method, without deproteinization. […]

[2] = test system: cisplatin-induced acute kidney injury (CI-AKI) mouse model; assay: Cisplatin-induced acute kidney injury (CI-AKI) mouse model, Compound 22 (Example 9); type: in vivo, female C57BL/6J mice; details: for gradual recovery of mean body weight, onset: cisplatin 11 mg/kg IP day 0
Protocol: The aim of the study was to investigate the efficacy of test compound(s) in a (mouse) model for acute kidney injury. Specifically, the study investigated the efficacy of test compound(s) in cisplatin-induced acute kidney injury (CI-AKI) mouse model. For example, the effect of daily repeated intraperitoneal (IP) administration of Compound 22 at doses of 50 mg/kg for 7 consecutive days in four different treatment regimens on development of pathology in mice in CI-AKI model was evaluated. Serum analysis for urea (BUN) was performed on the 5th day and 12th days after cisplatin administration. The mean body weight loss per group was calculated every day of the study as percentage loss of initial (day 0) weight for each individual animal.
Study design, animal selection, handling and treatment were all in accordance with the CRO's study protocols and Institutional Animal Care and Use Guidelines. Animal treatment and serum samples preparation were conducted by the Animal Laboratory personnel at the CRO. 100 female C57BL/6J mice 11-14 weeks old were randomized by body weight and divided into five groups, 20 animals each. Body weights ranged from 16.9 to 22.5 g with an average body weight across all groups 19.54 g (SD=1.04; CV=5.3%). Each mouse was treated with a single dose via IP route of administration with cisplatin at the dose of 11 mg/kg on the day 0 of the study. The mice in Group 2 and 4 were repeatedly treated with Compound 22 at the dose of 50 mg/kg with an interval of 24 h for seven consecutive days starting from Day 2 or Day 0 of the study, respectively. […]
To induce acute kidney injury, cisplatin was administered without dilution as a factory-made 1 mg/ml solution for infusion at the injection volume of 11 ml/kg for the dose of 11 mg/kg. […] Urea (BUN) was determined in the serum using a commercial kit according to the manufacturer's instructions. […] The rate of absorbance change at λ=340 nm is proportional to the urea concentration. […]

[3] = test system: cisplatin-induced acute kidney injury (AKI) in male Sprague Dawley rats; assay: Cisplatin-induced acute kidney injury (AKI) in rats, 90 minutes infusion (Example 12); type: in vivo; details: for body weight change over baseline (BWC): day 0-6, after post-treatment period, cisplatin 5 mg/kg IP
Protocol: The goal of this study was to assess the effect of compound 22 at the doses of 50 mg/kg and 25 mg/kg on the development of cisplatin-induced acute kidney injury (AKI) in male Sprague Dawley rats. Compound 22 was administrated repeatedly seven consecutive days by 90 minutes infusion into a jugular vein using automatic pumps. Treatment was initiated simultaneously with the single intraperitoneal (IP) administration of cisplatin at the dose of 5 mg/kg. The experimental animal's mortality was recorded daily. […] Serum analysis for Creatinine and Urea were performed on day −4th (blank), 1st, 3rd, 6th, 9th, and 12th (terminal) day of the study.
Rat's jugular vein catheterization. Rat's jugular vein catheterization procedure was performed on −3rd day of the study. All experimental animals were anesthetized prior to surgical intervention by Telazol at the dose of 40 mg/kg body weight and Xylazine at the dose of 8 mg/kg body weight. The anesthetized rat was placed onto a heated surgical platform. The surgical area was shaved and gently scrubbed with a drop of iodine in 96% ethanol solution. The skin incision (2 cm) was made on the right of the midline of the neck at the level of the clavicle using a scalpel. Dissected jugular vein, separated from the salivary and lymphatic tissues, was visualized and isolated approximately 5 mm section of the vessel. The cranial end of the vessel was tied using 4-0 silk ligatures. By micro surgical scissors an incision was made to pass the catheter into the vein approximately 20 mm towards the heart. The caudal end of the jugular vein was tied to catheter's collar with silk ligatures aimed to secure the place of catheter. The free end of catheter was tunneled subcutaneously and connected to a transcutaneous button that features an external port with a cap at the nape of the animal's neck. […] To prevent dehydration after the surgery animals were injected with 2 ml physiological saline intraperitoneal. To prevent catheter occlusion and ensure its functioning flushing 0.10-0.20 ml amount of physiological saline with anticoagulant (Heparin, 500 IU/ml) was applied. First time catheter flushing was performed immediately after catheter was properly positioned in the jugular vein and fixed there. The procedure was repeated prior to infusion start. When a catheter was not in use, it was locked. The infusion was started three days after the catheter placement.
Fluid infusion. Programmable automatic syringe pumps system allowed for a fluid infusion of delivering determined volume at the selected infusion time. After the catheter flushing animals were connected to the tether and the swivel setup permitted free movement of the animal during the infusion. The duration of infusion was 90 minutes. The volume of infusion was 10 ml/kg; infusion rate was determined automatically according to time of infusion and volume of the administrated formulation. The infusions were performed from 10 am to […] in a random order.
Drug formulation. Route and volume of administration. Cisplatin was administered without dilution as a factory-made 1 mg/ml solution for infusion at the injection volumes of 5 ml/kg which corresponded to the doses of 5 mg/kg. IP route was used for cisplatin administration in the study. Compound 22 was formulated in sterile conditions in physiological saline at the concentrations 5 mg/ml for the dose level 50 mg/kg and 2.5 mg/ml for the dose level 25 mg/kg and was administrated as true solution. All formulations were sterilized by filtration via Minisart RC 0.2 μm sterile syringe filter. Compound 22 infusion duration was 90 minutes. The administrated volume for all group was 10 ml/kg of the body weight.
Frequency and duration of the application. cisplatin was administered once on day 0 of the study, 30 min before first infusion. Compound 22 as well as vehicle was administrated 7 consecutive days (day 0-day 6) once per day.
Duration of the experimental period. […]

LLC animals = assay: Cancer treatment: survival and anti-tumor efficacy in LLC animals (Example 13); type: in vivo; details: day 15; Compound 22 (50 mg/kg), cisplatin (10 mg/kg)
Text: Compositions, system, and/or kits of the present disclosure can be effective at treating cancer and/or tumors. For example, a treatment protocol comprising illustrative compound 22 and cisplatin, co-administered is effective as an anti-tumor treatment, in addition to compound 22 preventing/attenuating kidney damage (caused by the chemotherapeutic nephrotoxin), restoring kidney function, and/or increasing patient survival during chemotherapy. FIG. 19 illustrates the survival efficacy of Compound 22 (50 mg/kg), cisplatin (10 mg/kg), and the combination of Compound 22+cisplatin in LLC animals. The co-administration of compound 22 (an illustrative PTBA prodrug) increased the probability of survival in LLC animals at day 15 from ˜75% (cisplatin alone) to ˜95% (Compound 22+cisplatin co-administration). FIG. 20 illustrates the anti-tumor efficacy of Compound 22, cisplatin, and the combination of Compound 22+cisplatin in LLC animals. cisplatin was administered to LLC animals at day 5 and day 14 of a 21 day study. Compound 22 was co-administered (once daily) 48 hours after each dose of cisplatin, and for 6 additional, consecutive days thereafter.

[4] = 50 mg/kg IP, 5th day after the cisplatin injection

In the case of `CN(C)CCOC(=O)CCCSc1ccccc1` [Compound 3, 2-(dimcthylamino)ethyl 4-(phenylsulfanyl)butanoate], the “mean level of creatinine in serum compared to G1” value [1, 4] is reported as “significantly less”, the “mean level of urea in serum compared to G1” value [1, 4] is reported as “significantly less” and the “gradual recovery of mean body weight, onset” value (from here on “gradual recovery”) ([1]; G2: 50 mg/kg IP every 24 h for seven days from Day 2, cisplatin 11 mg/kg IP day 0) is reported as “beginning from the sixth day of the study”.
For `C[N+](C)(C)CCOC(=O)CCCSc1ccccc1.Cl` [Compound 22, N,N,N-trimethyl-2-{[4-(phenylsulfanyl)butanoyl]oxy}ethan-1-aminium chloride], the “gradual recovery” value ([2]; G2-G3: 50 mg/kg IP once or twice a day, days 2-8) was “beginning from the fifth day of the study”, the “mean level of urea in serum compared to G1” value ([2]; G2-G5, 50 mg/kg IP, 5th day after the cisplatin injection) was “significantly less” and the “gradual recovery” value ([2]; G4-G5: 50 mg/kg IP once or twice a day, days 0-6) was “beginning from the seventh day of the study”. The “body weight change, comparison with the cisplatin, vehicle group” value ([3]; 25 mg/kg) was “No statistical significance”, the “histopathology scores compared to Vehicle-treated animals with cisplatin injection” value ([3]; 25 mg/kg) was “no significant difference” and the “body weight change over baseline (BWC)” value ([3]; 25 mg/kg infusion once per day) was −17.6%. The “kidney histopathology: cast deposition” value ([3]; 25 mg/kg, H&E, terminal day) was “medium”, the “kidney histopathology: connective tissue accumulation” value ([3]; 25 mg/kg, H&E, terminal day) was “mild” and the “kidney histopathology: glomerulonephritis” value ([3]; 25 mg/kg, H&E, terminal day) was “mild”. For the same compound, the “kidney histopathology: hemorrhages” value ([3]; 25 mg/kg, H&E, terminal day) was “occasional”, the “kidney histopathology: interstitial nephritis” value ([3]; 25 mg/kg, H&E, terminal day) was “medium/severe” and the “kidney histopathology: loss of brush border” value ([3]; 25 mg/kg, H&E, terminal day) was “severe”. For the same compound, the “kidney histopathology: loss of tubules” value ([3]; 25 mg/kg, H&E, terminal day) was “mild”, the “kidney histopathology: necrotic loci” value ([3]; 25 mg/kg, H&E, terminal day) was “medium-frequent” and the “kidney histopathology: tubular atrophy” value ([3]; 25 mg/kg, H&E, terminal day) was “mild”. For the same compound, the “kidney histopathology: tubular dilation” value ([3]; 25 mg/kg, H&E, terminal day) was “medium”, the “kidney histopathology: tubular epithelium flattening” value ([3]; 25 mg/kg, H&E, terminal day) was “medium/severe” and the “kidney histopathology: tubular epithelium loss” value ([3]; 25 mg/kg, H&E, terminal day) was “medium”. For the same compound, the “kidney histopathology: tubular hyperplasia” value ([3]; 25 mg/kg, H&E, terminal day) was “occasional”, the “serum Creatinine values compared to the cisplatin, vehicle-treated group” value ([3]; 25 mg/kg, day 6) was “significant decrease” and the “serum Urea values compared to the cisplatin, vehicle group” value ([3]; 25 mg/kg, day 6) was “significant decrease”. For the same compound, the “body weight change, comparison with the cisplatin, vehicle group” value ([3]; 50 mg/kg) was “No statistical significance”, the “histopathology scores compared to Vehicle-treated animals with cisplatin injection” value ([3]; 50 mg/kg) was “no significant difference” and the “severity of weight loss in individual animals (frequency distribution analysis)” value ([3]; 50 mg/kg and 25 mg/kg, end of the study period, compared to cisplatin treatment) was “decreases the severity of weight loss”. For the same compound, the “body weight change over baseline (BWC)” value ([3]; 50 mg/kg infusion once per day, survived animals) was −3.9%, the “kidney histopathology: cast deposition” value ([3]; 50 mg/kg, H&E, terminal day) was “mild” and the “kidney histopathology: connective tissue accumulation” value ([3]; 50 mg/kg, H&E, terminal day) was “mild”. The “kidney histopathology: interstitial nephritis” value ([3]; 50 mg/kg, H&E, terminal day) was “mild/medium”, the “kidney histopathology: loss of brush border” value ([3]; 50 mg/kg, H&E, terminal day) was “severe” and the “kidney histopathology: loss of tubules” value ([3]; 50 mg/kg, H&E, terminal day) was “occasional”. For the same compound, the “kidney histopathology: necrotic loci” value ([3]; 50 mg/kg, H&E, terminal day) was “occasional”, the “kidney histopathology: tubular atrophy” value ([3]; 50 mg/kg, H&E, terminal day) was “medium/mild” and the “kidney histopathology: tubular basophilia” value ([3]; 50 mg/kg, H&E, terminal day) was “occasional”. For the same compound, the “kidney histopathology: tubular dilation” value ([3]; 50 mg/kg, H&E, terminal day) was “medium”, the “kidney histopathology: tubular epithelium flattening” value ([3]; 50 mg/kg, H&E, terminal day) was “medium” and the “kidney histopathology: tubular epithelium loss” value ([3]; 50 mg/kg, H&E, terminal day) was “medium”. For the same compound, the “kidney histopathology: tubular epithelium vacuolation” value ([3]; 50 mg/kg, H&E, terminal day) was “occasional”, the “kidney histopathology: tubular hyperplasia” value ([3]; 50 mg/kg, H&E, terminal day) was “occasional” and the “serum Creatinine values compared to the cisplatin, vehicle-treated group” value ([3]; 50 mg/kg, day 6) was “significant decrease”. For the same compound, the “serum Creatinine values compared to the cisplatin, vehicle-treated group” value ([3]; 50 mg/kg, day 9) was “significant decrease”, the “serum Urea values compared to the cisplatin, vehicle group” value ([3]; 50 mg/kg, day 9) was “significant decrease” and the “cisplatin-induced AKI development (serum Creatinine and Urea levels during infusions and post-infusion period)” value ([3]; both tested doses (50 mg/kg and 25 mg/kg)) was “prevented cisplatin-induced AKI development”.
In the case of `N.N.[Cl][Pt][Cl]` [cisplatin], the “probability of survival in LLC animals” value (LLC animals) is reported as roughly 75%.
